Legend:
IN (integrase) = biological target: T1, IN (integrase) (Human immunodeficiency virus type 1 group M subtype B, UniProt P12497); settings: cited from earlier work
T1 construct: HIV-1 recombinant IN (HIV-1NL4-3 Integrase, NIH AIDS Reagent program Catalog No:2959); purchased NIH AIDS Reagent program 2959

HIV = settings: ex-vivo viral inhibition assay; cited from earlier work
HIV-1 MC99IIIBΔTat-Rev = experiment: viral inhibition assay (p24 ELISA, CEM-TART cells), FIG. 4; assay type: cell-based; settings: Human immunodeficiency virus 1
Excerpt: The novel compounds of the present invention can be further evaluated for their ability to inhibit viral replication in ex-vivo assays. Most common of these include determining the viral replication in either purified human CD4+ T cell blasts infected with HIV in the presence or absence of various concentrations of inhibitors or HIV infected MT4 cell line treated with different concentration of inhibitors. A standard laboratory method in screening for inhibitors against HIV in biological assays involves the use of recombinant HIV strain that can replicate only in the supporting complementing cell line. This model system allows the examination of HIV viral replication in a biologically contained manner and is suitable for inhibitor screening. The method is described briefly below. The recombinant HIV-1 strain (HIV-1 MC99IIIBΔTat-Rev; NIH Aids Reagent Program, catalog No: 1943) is genetically engineered to replicate only in supporting recombinant cell lines (CEM-TART Cells, NIH Aids Reagent Program catalog No 1944). The construction of the recombinant mutant virus, the supporting cell line and the biological assay are described in detail elsewhere. […] The extent of viral replication can be determined by measuring the soluble viral p24 protein present in the culture supernatant collected at 24, 48, 72 and 96-hr post infection using commercial ELISA kits.

For O=C(O)C(=O)CC(=O)c1cc(OCc2ccccc2)cc(OCc2ccccc2)c1 [Compound 6], the “inhibition of 3′ processing” value (IN (integrase)) is given as “do not inhibit 3′ processing” and the “inhibition of strand transfer reaction” value (IN (integrase)) is given as “inhibit strand transfer reaction”.

In the case of O=C(O)C(=O)CC(=O)c1cccn1Cc1ccc(F)cc1 [Compound 8], the “inhibition of 3′ processing” value (IN (integrase)) is listed as “do not inhibit 3′ processing” and the “inhibition of strand transfer reaction” value (IN (integrase)) is listed as “inhibit strand transfer reaction”.

For O=C(/C=C(\O)c1nn[nH]n1)c1c[nH]c2ccc(Cl)cc12 [Compound 10], the EC50 (HIV) is given as 700 nM, the “inhibition of 3′ processing” value (IN (integrase)) is given as “inhibit both reactions” and the “inhibition of strand transfer reaction” value (IN (integrase)) is given as “inhibit both reactions”.

In the case of O=C(O)CN(CCN(CCN(CC(=O)O)CC(=O)O)Cc1ccc2cccc(O)c2n1)CC(=O)O [Compound 16], the IC50 (HIV-1 MC99IIIBΔTat-Rev) is reported as 19.3 µM.
